Assay results from US20180057507A1, “INHIBITORS OF DUAL LEUCINE ZIPPER (DLK) KINASE FOR THE TREATMENT OF DISEASE” (Board of Regents, The University of Texas System, priority 2016, published 2018).

Legend:
human DLK [1] = molecular target: T1, human DLK (Homo sapiens, UniProt Q12852); assay: DLK Kd Determinations (KINOMEscan KdELECT, DiscoveRx); parameters: full length of human DLK (amino acids 1-859); host or cells: transiently transfected HEK293 cells; unpurified extract; conditions: fusion protein of full length human DLK (amino acids 1-859) and NFkB DNA binding domain; qPCR readout; duplicate
T1 sequence (Q12852 1-859): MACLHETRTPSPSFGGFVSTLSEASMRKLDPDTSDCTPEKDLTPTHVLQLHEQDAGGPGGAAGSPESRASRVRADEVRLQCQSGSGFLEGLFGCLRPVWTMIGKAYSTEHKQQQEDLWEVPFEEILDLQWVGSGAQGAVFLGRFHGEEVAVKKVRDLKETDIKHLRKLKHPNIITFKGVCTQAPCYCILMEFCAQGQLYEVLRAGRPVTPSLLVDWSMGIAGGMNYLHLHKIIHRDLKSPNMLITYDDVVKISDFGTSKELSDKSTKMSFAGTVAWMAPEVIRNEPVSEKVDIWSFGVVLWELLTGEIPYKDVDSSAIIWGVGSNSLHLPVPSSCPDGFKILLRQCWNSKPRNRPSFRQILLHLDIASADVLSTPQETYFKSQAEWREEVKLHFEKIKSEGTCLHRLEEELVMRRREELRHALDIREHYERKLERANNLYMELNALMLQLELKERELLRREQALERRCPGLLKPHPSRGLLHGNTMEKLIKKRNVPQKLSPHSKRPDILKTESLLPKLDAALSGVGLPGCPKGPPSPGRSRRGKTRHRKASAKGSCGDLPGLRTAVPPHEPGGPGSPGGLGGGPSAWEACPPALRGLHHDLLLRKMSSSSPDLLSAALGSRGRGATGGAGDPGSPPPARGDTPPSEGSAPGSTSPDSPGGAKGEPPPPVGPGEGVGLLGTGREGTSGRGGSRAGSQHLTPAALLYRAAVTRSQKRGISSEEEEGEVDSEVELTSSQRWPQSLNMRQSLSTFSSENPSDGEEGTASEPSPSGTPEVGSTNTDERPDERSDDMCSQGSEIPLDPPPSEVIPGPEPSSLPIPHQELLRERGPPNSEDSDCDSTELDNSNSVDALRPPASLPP
How it was run: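 Competition binding of full-length human DLK (aa 1-859)-NFkB DBD fusion, DNA-tagged, from HEK293 extracts against an immobilized ligand; 1 h at room temperature, 0.9% DMSO. Bead-bound kinase was quantified by qPCR. Kd came from an 11-point 3-fold series (top 30,000 nM), in duplicate, with Hill slope fixed at −1.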

human DLK [2] = molecular target: T1, human DLK; assay: Phospho-cJun Cellular Assay; format: cell-based; parameters: expressed in transfected cells; conditions: HEK293 cells stably transfected with Dox-inducible human DLK; p-cJun (Ser63); 5 h compound incubation
Description: Phospho-cJun Cellular Assay
HEK293 cells stably transfected with a Dox-inducible human DLK were plated into a 384-well plate in 20 μl (40,000 cells/well) of DMEM medium (without phenol red) containing 10% fetal bovine serum, 1.5 μg/ml doxycycline and 1 μg/ml puromycin. The cells as negative control were grown in the absence of doxycycline. The plate was incubated at 37° C., 5% CO2 for 20 h, before DMSO (control) or compounds diluted in medium were added. The cells were incubated at 37° C. for an additional 5 h, followed by lysis and the addition detection antibodies from p-cJun (Ser63) cellular assay kit (Cisbio) per manufacturer protocol. The standard dose response curves were fitted by Genedata Screener software using the variable-slope model: Signal=Signalnegative control+(SignalDMSO control−Signalnegative control)/(1+(IC50/Dose)̂Hill slope). Only signal and dose in the equation were treated as known values.

CC(C)c1nc(-c2cnc(N)c(C(F)(F)F)c2)cn1[C@H]1[C@@H]2CC(N3CCOC[C@@H]3C)C[C@@H]21 (stereo partly drawn) [Example 143, 5-(2-isopropyl-1-(3-((S)-3-methylmorpholino)bicyclo[3.1.0]hexan-6-yl)-1H-imidazol-4-yl)-3-(trifluoromethyl)pyridin-2-amine] gave a Kd (human DLK [1]) of 19 nM and an IC50 (human DLK [2]) of 1510 nM.

Nc1ncc(-c2cn([C@H]3[C@@H]4CN(C5COC5)C[C@@H]43)c(C3CC3)n2)cc1OC(F)(F)F [Example 65, 5-(2-cyclopropyl-1-((1R,5S,6s)-3-(oxetan-3-yl)-3-azabicyclo[3.1.0]hexan-6-yl)-1H-imidazol-4-yl)-3-(trifluoromethoxy)pyridin-2-amine] showed a Kd (human DLK [1]) of 32 nM and an IC50 (human DLK [2]) of 1050 nM.

Work on CC(C)c1nc(-c2cnc(N)c(OC(F)(F)F)c2)cn1[C@H]1[C@@H]2CN(C3CCOCC3)C[C@@H]21 [Example 81, 5-(2-isopropyl-1-((1R,5S,6s)-3-(tetrahydro-2H-pyran-4-yl)-3-azabicyclo[3.1.0]hexan-6-yl)-1H-imidazol-4-yl)-3-(trifluoromethoxy)pyridin-2-amine] yielded a Kd (human DLK [1]) of 99 nM and an IC50 (human DLK [2]) of 1510 nM.

In the case of CC(C)c1nc(-c2cnc(N)c(OC(F)(F)F)c2)cn1[C@H]1C2CC(N3C[C@@H]4C[C@H]3CO4)C[C@@H]21 (stereo in doubt) [Example 134, 5-(1-((1S,5S)-3-((1S,4S)-2-oxa-5-azabicyclo[2.2.1]heptan-5-yl)bicyclo[3.1.0]hexan-6-yl)-2-isopropyl-1H-imidazol-4-yl)-3-(trifluoromethoxy)pyridin-2-amine], the Kd (human DLK [1]) is reported as 33 nM and the IC50 (human DLK [2]) is reported as 1040 nM.

Work on Nc1ncc(-c2cn([C@H]3[C@@H]4CC(N5CCN(CCF)CC5)C[C@@H]43)c(CC3CC3)n2)cc1OC(F)(F)F (single isomer, unassigned) [Example 152a, 5-(2-(cyclopropylmethyl)-1-(3-(4-(2-fluoroethyl)piperazin-1-yl)bicyclo[3.1.0]hexan-6-yl)-1H-imidazol-4-yl)-3-(trifluoromethoxy)pyridin-2-amine] yielded a Kd (human DLK [1]) of 37 nM and an IC50 (human DLK [2]) of 1350 nM.

With Nc1ncc(-c2cn([C@H]3[C@@H]4CNC[C@@H]43)c(C3CC3)n2)cc1OC(F)(F)F [Example 53, 5-(1-((1R,5S,6s)-3-azabicyclo[3.1.0]hexan-6-yl)-2-cyclopropyl-1H-imidazol-4-yl)-3-(trifluoromethoxy)pyridin-2-amine] the Kd (human DLK [1]) was 57 nM and the IC50 (human DLK [2]) was 802 nM.

With CC(C)Cc1nc(-c2cnc(N)c(OC(F)(F)F)c2)cn1[C@H]1[C@@H]2CC(N3CCN(CCF)CC3)C[C@@H]21 (single isomer, unassigned) [Example 159a, 5-(1-(3-(4-(2-fluoroethyl)piperazin-1-yl)bicyclo[3.1.0]hexan-6-yl)-2-isobutyl-1H-imidazol-4-yl)-3-(trifluoromethoxy)pyridin-2-amine] the Kd (human DLK [1]) was 33 nM and the IC50 (human DLK [2]) was 589 nM.

CC(=O)N1C[C@@H]2[C@H](C1)[C@H]2n1cc(-c2cnc(N)c(C(F)(F)F)c2)nc1C1CC1 [Example 72, 1-((1R,5S,6s)-6-(4-(6-amino-5-(trifluoromethyl)pyridin-3-yl)-2-cyclopropyl-1H-imidazol-1-yl)-3-azabicyclo[3.1.0]hexan-3-yl)ethan-1-one] showed a Kd (human DLK [1]) of 69 nM and an IC50 (human DLK [2]) of 2690 nM.

For COCCN1C[C@@H]2[C@H](C1)[C@H]2n1cc(-c2cnc(N)c(OC(F)(F)F)c2)nc1C1CC1 [Example 68, 5-(2-cyclopropyl-1-((1R,5S,6s)-3-(2-methoxyethyl)-3-azabicyclo[3.1.0]hexan-6-yl)-1H-imidazol-4-yl)-3-(trifluoromethoxy)pyridin-2-amine], the Kd (human DLK [1]) was 77 nM and the IC50 (human DLK [2]) was 745 nM.

For CC(C)c1nc(-c2cnc(N)c(C(F)(F)F)c2)cn1[C@H]1[C@@H]2CC(N3CCN(CCF)CC3)C[C@@H]21 (single isomer, unassigned) [Example 155b, 5-(1-(3-(4-(2-fluoroethyl)piperazin-1-yl)bicyclo[3.1.0]hexan-6-yl)-2-isopropyl-1H-imidazol-4-yl)-3-(trifluoromethyl)pyridin-2-amine], the Kd (human DLK [1]) was 4.5 nM and the IC50 (human DLK [2]) was 1160 nM.

Work on Nc1ncc(-c2cn([C@H]3[C@@H]4CN(C5CCOCC5)C[C@@H]43)c(CC3CC3)n2)cc1C(F)(F)F [Example 76, 5-(2-(cyclopropylmethyl)-1-((1R,5S,6s)-3-(tetrahydro-2H-pyran-4-yl)-3-azabicyclo[3.1.0]hexan-6-yl)-1H-imidazol-4-yl)-3-(trifluoromethyl)pyridin-2-amine] yielded a Kd (human DLK [1]) of 51 nM and an IC50 (human DLK [2]) of 760 nM.

CN1CCN(C2C[C@@H]3[C@H](C2)[C@H]3n2cc(-c3cnc(N)c(OC(F)(F)F)c3)nc2CC2CC2)CC1 (single isomer, unassigned) [Example 151b, 5-(2-(cyclopropylmethyl)-1-(3-(4-methylpiperazin-1-yl)bicyclo[3.1.0]hexan-6-yl)-1H-imidazol-4-yl)-3-(trifluoromethoxy)pyridin-2-amine] was tested, and the Kd (human DLK [1]) was 20 nM and the IC50 (human DLK [2]) was 826 nM.

CC(C)c1nc(-c2cnc(N)c(OC(F)(F)F)c2)cn1[C@H]1[C@@H]2CC(N3CCCOCC3)C[C@@H]21 (single isomer, unassigned) [Example 20a, 5-(1-(3-(1,4-oxazepan-4-yl)bicyclo[3.1.0]hexan-6-yl)-2-isopropyl-1H-imidazol-4-yl)-3-(trifluoromethoxy)pyridin-2-amine] showed a Kd (human DLK [1]) of 15 nM and an IC50 (human DLK [2]) of 965 nM.

CN1CCN(C2C[C@@H]3[C@H](C2)[C@H]3n2cc(-c3cnc(N)c(C(F)(F)F)c3)nc2C2CC2)CC1 (single isomer, unassigned) [Example 129a, 5-(2-cyclopropyl-1-(3-(4-methylpiperazin-1-yl)bicyclo[3.1.0]hexan-6-yl)-1H-imidazol-4-yl)-3-(trifluoromethyl)pyridin-2-amine] showed a Kd (human DLK [1]) of 12.8 nM and an IC50 (human DLK [2]) of 503 nM.

With CN1CCN(C2C[C@@H]3[C@H](C2)[C@H]3n2cc(-c3cnc(N)c(OC(F)F)c3)nc2C2CC2)CC1 (stereo partly shown) [Example 150, 5-(2-cyclopropyl-1-(3-(4-methylpiperazin-1-yl)bicyclo[3.1.0]hexan-6-yl)-1H-imidazol-4-yl)-3-(difluoromethoxy)pyridin-2-amine] the Kd (human DLK [1]) was 54 nM and the IC50 (human DLK [2]) was 1090 nM.

For CC(C)Cc1nc(-c2cnc(N)c(C(F)(F)F)c2)cn1[C@H]1[C@@H]2CN(CCF)C[C@@H]21 [Example 126, 5-(1-((1R,5S,6s)-3-(2-fluoroethyl)-3-azabicyclo[3.1.0]hexan-6-yl)-2-isobutyl-1H-imidazol-4-yl)-3-(trifluoromethyl)pyridin-2-amine], the Kd (human DLK [1]) was 34 nM and the IC50 (human DLK [2]) was 823 nM.

Compound CC(C)c1nc(-c2cnc(N)c(OC(F)(F)F)c2)cn1[C@H]1[C@@H]2CC(N3CCN(C)CC3)C[C@@H]21 (single isomer, unassigned) [Example 133a, 5-(2-isopropyl-1-(3-(4-methylpiperazin-1-yl)bicyclo[3.1.0]hexan-6-yl)-1H-imidazol-4-yl)-3-(trifluoromethoxy)pyridin-2-amine] has a Kd (human DLK [1]) of 20 nM and an IC50 (human DLK [2]) of 896 nM.

Compound CC(C)c1nc(-c2cnc(N)c(OC(F)(F)F)c2)cn1[C@H]1[C@@H]2CC(N3CCN(C)CC3)C[C@@H]21 (single isomer, unassigned) [Example 133b, 5-(2-isopropyl-1-(3-(4-methylpiperazin-1-yl)bicyclo[3.1.0]hexan-6-yl)-1H-imidazol-4-yl)-3-(trifluoromethoxy)pyridin-2-amine] has a Kd (human DLK [1]) of 21 nM and an IC50 (human DLK [2]) of 645 nM.

C[C@H]1COCCN1C1C[C@@H]2[C@H](C1)[C@H]2n1cc(-c2cnc(N)c(C(F)(F)F)c2)nc1C1CC1 (single isomer, unassigned) [Example 140b] was tested, and the Kd (human DLK [1]) was 37.5 nM and the IC50 (human DLK [2]) was 636 nM.

For CC(C)c1nc(-c2cnc(N)c(C(F)(F)F)c2)cn1C1CC2(CC(N3CCOCC3)C2)C1 (stereo not shown) [Example 38, 5-(2-isopropyl-1-(6-morpholinospiro[3.3]heptan-2-yl)-1H-imidazol-4-yl)-3-(trifluoromethyl)pyridin-2-amine], the Kd (human DLK [1]) was 25 nM and the IC50 (human DLK [2]) was 1140 nM.
